For assay [1], the target named is T1, CarE CCE001a (Helicoverpa armigera, UniProt D9IV61).
T1 construct: no purification described
T1 sequence (D9IV61 17-555): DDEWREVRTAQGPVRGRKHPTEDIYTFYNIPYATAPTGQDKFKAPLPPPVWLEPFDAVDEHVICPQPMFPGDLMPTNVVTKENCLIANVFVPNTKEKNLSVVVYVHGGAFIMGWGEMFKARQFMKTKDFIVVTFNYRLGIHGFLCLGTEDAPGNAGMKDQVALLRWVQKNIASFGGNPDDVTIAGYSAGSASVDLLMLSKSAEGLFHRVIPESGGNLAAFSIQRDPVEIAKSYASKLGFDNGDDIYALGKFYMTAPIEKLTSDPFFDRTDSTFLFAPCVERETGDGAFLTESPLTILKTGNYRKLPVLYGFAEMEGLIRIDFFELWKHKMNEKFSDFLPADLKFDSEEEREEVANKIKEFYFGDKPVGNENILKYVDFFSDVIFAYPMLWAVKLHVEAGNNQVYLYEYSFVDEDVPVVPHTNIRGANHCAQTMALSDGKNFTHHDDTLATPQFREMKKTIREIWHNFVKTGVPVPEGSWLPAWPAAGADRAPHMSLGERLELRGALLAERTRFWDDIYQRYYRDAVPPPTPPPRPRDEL
The assay can be described thus: free gossypol depletion by HPLC; products by UPLC-QTOF/MS. The assay is classed as cell-based. Conditions: PBS, NADPH-Na4 added, 37 °C, 1.5 h, dark; recombinant protein from P. pastoris expression, purification not described.

Assay [2] concerns the target T1, CarE CCE001a. The assay can be described thus: esterase activity, absorbance at […] nm. Particulars: 37 °C; recombinant protein from P. pastoris expression, purification not described. The assay is classed as cell-based.

Two compounds from paper PMC9788223, “Biodegradation of Free Gossypol by Helicoverpa armigera Carboxylesterase Expressed in Pichia pastoris” (Toxins, 2022) can be followed below.

As to `Cc1cc2c(C(C)C)c(O)c(O)c(C=O)c2c(O)c1-c1c(C)cc2c(C(C)C)c(O)c(O)c(C=O)c2c1O` [Gossypol], the “free gossypol depletion by HPLC; products by UPLC-QTOF/MS” value at CarE CCE001a [1] is “Under the influence of recombinant CarE, TG and FG levels decreased rapidly in the experimental group”.

For the compound `CC(=O)Oc1cccc2ccccc12` [alpha-naphthyl acetate], on CarE CCE001a [2], the “esterase activity, absorbance at 450 nm” value is reported as “We also evaluated the enzyme activity of the recombinant CCE001a protein with the model substrate”.
